Results: patent CN1063108A, “三氟甲基酮衍生物及其制备方法和用途” (Fujisawa Pharmaceutical Co Ltd, priority 1990, dated 1992)
Numbered stars: 1 amine (or outer) side, 2 acyl side, 3 side chain; on linkers, the order of the positions; unused ones are H or OH. Square brackets hold non-standard residues; d marks the D form. Peptide text beside a SMILES is read from it. * marks the point of attachment. ξ: configuration not given here. 4Abz = Nc1ccc(C(=O)O)cc1; CO = O=C([*:1])[*:2]; ξV = CC(C)C(N)C(=O)O; CF3 = FC(F)(F)*

Assays:
[1] = tested on: human sputum elastase-induced lung hemorrhage in hamsters; assay: Elastase-induced lung hemorrhage (hemoglobin in BAL cells, OD 541 nm); type: in vivo, hamster; settings: for % inhibition of lung hemorrhage / Hemorrhage (OD541nm): 5 min before elastase; for Hemorrhage (OD541nm): BAL 3 h later; for ED50, inhibition of lung hemorrhage: intratracheal, 5 min pre-dose
[2] = tested on: HSE-induced paw edema in C57BL mice; assay: Human sputum elastase-induced mouse paw edema; type: in vivo; settings: for Footpad thickness (difference right-left hind paw): 15 min before HSE 20 μg/site, measured 2 h after HSE
[3] = tested on: PPE-induced emphysema in Golden Syrian hamsters; assay: Experimentally induced (porcine pancreatic elastase) emphysema in hamsters, lung mechanics; type: in vivo, hamster; settings: for Cst (quasi-static lung compliance) / VC (vital capacity): 5 min before PPE 100 μg/site, 3 weeks later
[4] = 1 μg/site intratracheal, listed as 13
[5] = 10 μg/site intratracheal, listed as 13
[6] = 100 μg/site intratracheal, listed as 13
[7] = 1 μg/site intratracheal, listed as 19
[8] = 10 μg/site intratracheal, listed as 19
[9] = 100 μg/site intratracheal, listed as 19

CC(C)C(NC(=O)CN(C(=O)[C@@H](NC(=O)c1ccc(C(=O)NCCN2CCOCC2)cc1)C(C)C)C1Cc2ccccc2C1)C(=O)C(F)(F)F.Cl (stereo partly drawn) [实施例29, 3(RS)-[[4-[[2-(4-吗啉代)乙基]氨基羰基]苯基羰基]-L-缬氨酰基-N-(2-二氢化茚基)甘氨酰基]氨基-1，1，1-三氟-4-甲基-2-氧代戊烷的盐酸盐]
% inhibition of lung hemorrhage ([1]; 1 μg/site intratracheal): 14.9% | Hemorrhage (OD541nm) ([1]; 1 μg/site intratracheal): 12.05±1.95 OD541nm | % inhibition of lung hemorrhage ([1]; 10 μg/site intratracheal): 43.2% | Hemorrhage (OD541nm) ([1]; 10 μg/site intratracheal): 8.155±1.76 OD541nm | % inhibition of lung hemorrhage ([1]; 100 μg/site intratracheal): 69.4% | Hemorrhage (OD541nm) ([1]; 100 μg/site intratracheal): 4.545±1.49 OD541nm | ED50, inhibition of lung hemorrhage [1]: 17.9 μg/位点

CC(C)C(NC(=O)[C@@H]1CCCN1C(=O)[C@@H](NC(=O)Nc1ccc(C(=O)NCC(=O)O)cc1)C(C)C)C(=O)C(F)(F)F (stereo partly drawn) [实施例23, 3(RS)-[[4-(羧甲基氨基羰基)苯基氨基羰基]-L-缬氨酰基-L-脯氨酰基]氨基-1，1，1-三氟-2-氧代-4-甲基戊烷] ({Gly-4Abz-CO}-Val-Pro-[ξV]-CF3)
% inhibition of lung hemorrhage ([1]; 1 μg/site intratracheal): 16.0% | Hemorrhage (OD541nm) ([1]; 1 μg/site intratracheal): 9.435±0.941 OD541nm | % inhibition of lung hemorrhage ([1]; 10 μg/site intratracheal): 75.6% | Hemorrhage (OD541nm) ([1]; 10 μg/site intratracheal): 3.412±1.31 OD541nm | % inhibition of lung hemorrhage ([1]; 100 μg/site intratracheal): 102.1% | Hemorrhage (OD541nm) ([1]; 100 μg/site intratracheal): 0.7258±0.303 OD541nm | ED50, inhibition of lung hemorrhage [1]: 3.2 μg/位点

CC(C)C(NC(=O)[C@@H]1CCCN1C(=O)[C@@H](NC(=O)c1ccc(C(=O)NCC(=O)O)cc1)C(C)C)C(=O)C(F)(F)F (stereo partly drawn) [实施例13, 3(RS)-[[4-(羧基甲基氨基羰基)苯基羰基]-L-缬氨酰基-L-脯氨酰基]氨基-1，1，1-三氟-4-甲基-2-氧代戊烷]
Hemorrhage (OD541nm) [1, 4]: 11.63±1.99 OD541nm | % inhibition of lung hemorrhage [1, 4]: 21.6% | Hemorrhage (OD541nm) [1, 5]: 4.217±1.02 OD541nm | % inhibition of lung hemorrhage [1, 5]: 74.5% | Hemorrhage (OD541nm) [1, 6]: 0.6384±0.222 OD541nm | % inhibition of lung hemorrhage [1, 6]: 100.0% | ED50, inhibition of lung hemorrhage ([1]; listed as 13): 3.0 μg/位点

CC(C)C(NC(=O)[C@@H]1CCCN1C(=O)[C@@H](NC(=O)c1ccc(C(=O)NCC(=O)O)cc1)C(C)C)C(=O)C(F)(F)F (stereo partly drawn) [实施例19, 3(RS)-[[4-(羧甲基氨基羰基)苯基羰基]-L-缬氨酰基-L-脯氨酰基]氨基-1，1，1-三氟-4-甲基-2-氧代戊烷]
% inhibition of paw edema ([2]; 1 mg/Kg s.c.): 6.4% | Footpad thickness (difference right-left hind paw) ([2]; 1 mg/Kg s.c.): 43.8±5.67 ×10-2mm | % inhibition of paw edema ([2]; 10 mg/Kg s.c.): 20.9% | Footpad thickness (difference right-left hind paw) ([2]; 10 mg/Kg s.c.): 37.0±13.41 ×10-2mm | % inhibition of paw edema ([2]; 100 mg/Kg s.c.): 42.3% | Footpad thickness (difference right-left hind paw) ([2]; 100 mg/Kg s.c.): 27.0±4.66 ×10-2mm | Hemorrhage (OD541nm) [1, 7]: 11.59±1.40 OD541nm | % inhibition of lung hemorrhage [1, 7]: 10.8% | Hemorrhage (OD541nm) [1, 8]: 1.663±0.690 OD541nm | % inhibition of lung hemorrhage [1, 8]: 93.1% | Hemorrhage (OD541nm) [1, 9]: 0.2141±0.020 OD541nm | % inhibition of lung hemorrhage [1, 9]: 105.2% | ED50, inhibition of lung hemorrhage ([1]; listed as 19): 2.4 μg/位点 | Cst, % inhibition ([3]; 1 μg/site intratracheal): 15% | VC, % inhibition ([3]; 1 μg/site intratracheal): 12% | Cst (quasi-static lung compliance) ([3]; 1 μg/site intratracheal): 1.39±0.05 ml/cm H2O | VC (vital capacity) ([3]; 1 μg/site intratracheal): 7.0 ± 0.1 mL | Cst, % inhibition ([3]; 10 μg/site intratracheal): 84% | VC, % inhibition ([3]; 10 μg/site intratracheal): 65% | Cst (quasi-static lung compliance) ([3]; 10 μg/site intratracheal): 0.70±0.04 ml/cm H2O | VC (vital capacity) ([3]; 10 μg/site intratracheal): 5.8 ± 0.1 mL | Cst, % inhibition ([3]; 100 μg/site intratracheal): 100% | VC, % inhibition ([3]; 100 μg/site intratracheal): 97% | Cst (quasi-static lung compliance) ([3]; 100 μg/site intratracheal): 0.53±0.02 ml/cm H2O | VC (vital capacity) ([3]; 100 μg/site intratracheal): 5.0 ± 0.1 mL | Potency compared with prior-art compounds by Cst and VC (in words) ([3]; based on Cst and VC values): 效力优于先有技术化合物A和B | Effect of pretreatment on PPE-induced increase in lung mechanics (in words) ([3]; dose-related, intratracheal pretreatment): 防止了PPE诱发的肺力学增加

CC(C)C(NC(=O)[C@@H]1CCCN1C(=O)[C@@H](NC(=O)c1ccc(C(=O)NCCN2CCOCC2)cc1)C(C)C)C(=O)C(F)(F)F.Cl (stereo partly drawn) [实施例21, 3(RS)-[[4-[[2-(4-吗啉代)乙基]氨基羰基]苯基羰基]-L-缬氨酰基-L-脯氨酰基]氨基-1，1，1-三氟-4-甲基-2-氧代戊烷盐酸盐]
% inhibition of lung hemorrhage ([1]; 1 μg/site intratracheal): 13.6% | Hemorrhage (OD541nm) ([1]; 1 μg/site intratracheal): 12.76±1.11 OD541nm | % inhibition of lung hemorrhage ([1]; 10 μg/site intratracheal): 66.3% | Hemorrhage (OD541nm) ([1]; 10 μg/site intratracheal): 5.372±2.06 OD541nm | % inhibition of lung hemorrhage ([1]; 100 μg/site intratracheal): 100.0% | Hemorrhage (OD541nm) ([1]; 100 μg/site intratracheal): 0.6476±0.129 OD541nm | ED50, inhibition of lung hemorrhage [1]: 4.5 μg/位点

CC(C)C(NC(=O)CN(C(=O)[C@@H](NC(=O)c1ccc(C(=O)NCC(=O)[O-])cc1)C(C)C)C1Cc2ccccc2C1)C(=O)C(F)(F)F.[Na+] (stereo partly drawn) [实施例27, 3(RS)-[[4-(羧甲基氨基羰基)苯基羰基]-L-缬氨酰基-N-(2-二氢化茚基)甘氨酰基]氨基-1，1，1-三氟-4-甲基-2-氧代戊烷钠盐]
% inhibition of lung hemorrhage ([1]; 1 μg/site intratracheal): 24.8% | Hemorrhage (OD541nm) ([1]; 1 μg/site intratracheal): 10.68±1.25 OD541nm | % inhibition of lung hemorrhage ([1]; 10 μg/site intratracheal): 66.9% | Hemorrhage (OD541nm) ([1]; 10 μg/site intratracheal): 4.878±0.917 OD541nm | % inhibition of lung hemorrhage ([1]; 100 μg/site intratracheal): 99.8% | Hemorrhage (OD541nm) ([1]; 100 μg/site intratracheal): 0.3451±0.084 OD541nm | ED50, inhibition of lung hemorrhage [1]: 3.7 μg/位点
